# Assay results reported in PMC13198257, “An aerosolized dual-action autotaxin inhibitor-PPARγ agonist for the treatment of pulmonary fibrosis” (Cell Reports Medicine, 2026).
# System: lung gene expression
# Experiment: RNA sequencing of lung tissue (BLM/EL244 vs BLM)
# Assay type: in vivo, mouse
# Conditions: lung tissue, BLM/EL244 vs BLM
# Protocol: RNA quality was assessed using an Agilent TapeStation 4150 with the High Sensitivity […] ScreenTape (Agilent), according to the manufacturer’s protocols. For library preparation, the QuantSeq 3’mRNA-Seq Library Prep Kit (Lexogen) was used according to manufacturer’s instructions. Briefly, 500 ng of RNA from each sample was used for first-strand synthesis, followed by RNA template removal, and second-strand synthesis initiated by random primers. In-line barcodes were introduced at this step, and this was followed by magnetic bead-based purification. The resulting libraries were amplified for 15 cycles and re-purified, with quantity and quality assessed on a Qubit 4 Fluorometer with the Invitrogen Qubit dsDNA HS Assay and an Agilent Tapestation 4150 with the High Sensitivity D1000 assay kit, respectively. The quantified libraries were pooled equimolarly; 50ng of total library mix was used for Adapter Conversion PCR Amplification using the Universal Library Conversion Kit (App-A), Version: V1.0 (MGI Tech Co., Ltd.), according to the manufacturer’s instructions.
# The quantity and quality of the purified adapter conversion PCR (AC-PCR) product were evaluated on a Qubit 4 Fluorometer with the Invitrogen Qubit dsDNA HS Assay and on an Agilent Tapestation 4150 with the High Sensitivity D1000 assay kit, respectively. This was followed by DNA denaturation, Single-Strand Circularisation, Enzymatic Digestion, Enzymatic Digestion Product Cleanup and Quality Control steps on 1 pmol of AC-PCR product, according to the Universal Library Conversion Kit (App-A) User Manual (Version: A3).
# Finally, 60 fmol of ssCirDNA were used for DNB preparation and sequencing on a DNBSEQ-G400 platform at the BSRC Alexander Fleming Genomics Facility, using a G400 App-A FCS SE100 High-throughput Sequencing Set (MGI Tech Co., Ltd.), according to the manufacturer’s instructions.
# Alignment of the FASTQ files was performed against the mouse genome build mm10 using a custom Bash script.[143] Read counting on the 3′ UTRs and differential expression analysis were conducted using the metaseqR2 bioconductor package.[144] Genes corresponding to the following biotypes were excluded: polymorphic_pseudogene, processed_transcript, pseudogene, IG_V_pseudogene, misc_RNA, IG_C_gene, IG_J_gene, IG_D_gene, IG_LV_gene, TR_V_gene, TR_V_pseudogene, TEC, and processed_pseudogene. Gene counts were normalized with DESEQ[145] through metaseqR2. Genes with more than 10 counts in at least 50% of the samples were kept for further processing. For differential expression analysis, the PANDORA algorithm[146] was used to estimate a meta p-value integrating the results from the DESEQ, DESEQ2,[147] edgeR,[148] limma,[149] NBPSeq,[150] and NOISeq[151] algorithms. All additional parameters were set to default values.
# Pathway enrichment analysis was performed for the Gene Ontology Biological process (BP) and Molecular Function (MF) terms through GeneCodis 4.[152] The volcano plots, scatterplots, Venn diagrams, and dot plots were generated using the ggplot2 Bioconductor package.
smiles,measurement,value
"O=C1NC(=O)C(Cc2ccc(OCCC3CCN(C(=O)OCc4cc(Cl)cc(Cl)c4)CC3)cc2)S1 (centres unmarked) [EL244, 3,5-dichlorobenzyl 4-(2-(4-((2,4-dioxothiazolidin-5-yl)methyl)phenoxy)ethyl)piperidine-1-carboxylate]",Evi2a nFC,0.57
same,Fam120b log2 nFC,0.61
same,Fam120b nFC,1.53
same,Fbln5 log2 nFC,-0.64
same,Fbln5 nFC,0.64
same,Fcer1g log2 nFC,-0.80
same,Fcer1g nFC,0.57
same,Flt1 log2 nFC,0.58
same,Flt1 nFC,1.50
same,Fmod log2 nFC,-1.79
same,Fmod nFC,0.29
same,Fn1 log2 nFC,-1.69
same,Fn1 nFC,0.31
same,Foxm1 log2 nFC,-1.56
same,Foxm1 nFC,0.34
same,Gas7 log2 nFC,-0.82
same,Gas7 nFC,0.57
same,Gatm log2 nFC,-1.79
same,Gatm nFC,0.29
same,Gen1 log2 nFC,-1.63
same,Gen1 nFC,0.32
same,Gins2 log2 nFC,-1.57
same,Gins2 nFC,0.34
same,Gja4 log2 nFC,-0.81
same,Gja4 nFC,0.57
same,Gm9844 log2 nFC,-0.79
same,Gm9844 nFC,0.58
same,Gm22774 log2 nFC,-2.05
same,Gm22774 nFC,0.24
same,Gm23451 log2 nFC,-1.99
same,Gm23451 nFC,0.25
same,Gm49673 log2 nFC,-0.71
same,Gm49673 nFC,0.61
same,Gpc1 log2 nFC,-0.80
same,Gpc1 nFC,0.57
same,Gtse1 log2 nFC,-1.49
same,Gtse1 nFC,0.36
same,Gxylt2 log2 nFC,-1.47
same,Gxylt2 nFC,0.36
same,Gyg log2 nFC,-0.60
same,Gyg nFC,0.66
same,H2-Aa log2 nFC,-0.68
same,H2-Aa nFC,0.62
same,H2-Eb1 log2 nFC,-0.70
same,H2-Eb1 nFC,0.62
same,H2-M2 log2 nFC,-1.86
same,H2-M2 nFC,0.27
same,H2ac11 log2 nFC,-1.45
same,H2ac11 nFC,0.37
same,H2ac12 log2 nFC,-1.44
same,H2ac12 nFC,0.37
same,Hc log2 nFC,0.67
same,Hc nFC,1.59
same,Herpud1 log2 nFC,0.64
same,Herpud1 nFC,1.56
same,Hexb log2 nFC,-0.83
same,Hexb nFC,0.56
same,Hhip log2 nFC,-0.72
same,Hhip nFC,0.61
same,Hif1a log2 nFC,-0.69
same,Hif1a nFC,0.62
same,Hist1h2ao log2 nFC,-1.60
same,Hist1h2ao nFC,0.33
same,Hist1h2ap log2 nFC,-2.04
same,Hist1h2ap nFC,0.24
same,Hmgn3 log2 nFC,-0.64
same,Hmgn3 nFC,0.64
same,Ier3 log2 nFC,-0.63
same,Ier3 nFC,0.65
same,Igf1 log2 nFC,-1.60
same,Igf1 nFC,0.33
same,Igfbp4 log2 nFC,-0.58
same,Igfbp4 nFC,0.67
same,Inhba log2 nFC,-2.22
same,Inhba nFC,0.21
same,Iqgap3 log2 nFC,-2.41
same,Iqgap3 nFC,0.19
same,Itgax log2 nFC,-0.80
same,Itgax nFC,0.58
same,Jpt1 log2 nFC,-0.68
same,Jpt1 nFC,0.63
same,Kank3 log2 nFC,0.61
same,Kank3 nFC,1.53
same,Kif2c log2 nFC,-1.67
same,Kif2c nFC,0.32
same,Kif11 log2 nFC,-1.74
same,Kif11 nFC,0.30
same,Kif14 log2 nFC,-1.56
same,Kif14 nFC,0.34
same,Kif15 log2 nFC,-1.89
same,Kif15 nFC,0.27
same,Kif20a log2 nFC,-2.52
same,Kif20a nFC,0.17
same,Knstrn log2 nFC,-2.52
same,Knstrn nFC,0.17
same,Lama1 log2 nFC,-2.43
same,Lama1 nFC,0.19
same,Lap3 log2 nFC,-0.71
same,Lap3 nFC,0.61
same,Lbh log2 nFC,-0.66
same,Lbh nFC,0.63
same,Lgals3 log2 nFC,-0.80
same,Lgals3 nFC,0.57
same,Lipa log2 nFC,-0.78
same,Lipa nFC,0.58
same,Lmnb2 log2 nFC,-0.70
same,Lmnb2 nFC,0.62
same,Lockd log2 nFC,-1.59
same,Lockd nFC,0.33
same,Lox log2 nFC,-0.69
same,Lox nFC,0.62
same,Loxl1 log2 nFC,-0.69
same,Loxl1 nFC,0.62
same,Lpl log2 nFC,-0.68
same,Lpl nFC,0.62
same,Ltbp2 log2 nFC,-1.44
same,Ltbp2 nFC,0.37
same,Map2 log2 nFC,-0.67
same,Map2 nFC,0.63
same,Mat2a log2 nFC,0.59
same,Mat2a nFC,1.50
same,Matk log2 nFC,-1.42
same,Matk nFC,0.37
same,Mcm2 log2 nFC,-0.80
same,Mcm2 nFC,0.57
same,Mcm3 log2 nFC,-0.84
same,Mcm3 nFC,0.56
same,Mcm6 log2 nFC,-0.76
same,Mcm6 nFC,0.59
same,Melk log2 nFC,-1.65
same,Melk nFC,0.32
same,Mest log2 nFC,-2.27
same,Mest nFC,0.21
same,Mex3a log2 nFC,-1.69
same,Mex3a nFC,0.31
same,Mgl2 log2 nFC,-0.72
same,Mgl2 nFC,0.61
same,Mif log2 nFC,-0.72
same,Mif nFC,0.61
same,Mir147 log2 nFC,-1.44
same,Mir147 nFC,0.37
same,Mis18bp1 log2 nFC,-1.46
same,Mis18bp1 nFC,0.36
same,Mki67 log2 nFC,-1.62
same,Mki67 nFC,0.33
same,Mmp2 log2 nFC,-0.81
same,Mmp2 nFC,0.57
same,Mmp12 log2 nFC,-2.48
same,Mmp12 nFC,0.18
same,Mmp13 log2 nFC,-1.80
same,Mmp13 nFC,0.29
same,Ms4a7 log2 nFC,-1.49
same,Ms4a7 nFC,0.36
same,Msr1 log2 nFC,-1.44
same,Msr1 nFC,0.37
same,Mybpc2 log2 nFC,-2.17
same,Mybpc2 nFC,0.22
same,Nans log2 nFC,-0.72
same,Nans nFC,0.61
same,Nek6 log2 nFC,-0.68
same,Nek6 nFC,0.63
same,Nipal3 log2 nFC,0.64
same,Nipal3 nFC,1.56
same,Npr2 log2 nFC,0.59
same,Npr2 nFC,1.50
same,Ntrk2 log2 nFC,-1.60
same,Ntrk2 nFC,0.33
same,Nup93 log2 nFC,-0.64
same,Nup93 nFC,0.64
same,Nusap1 log2 nFC,-2.02
same,Nusap1 nFC,0.25
same,Nwd2 log2 nFC,-1.51
same,Nwd2 nFC,0.35
same,Oaf log2 nFC,-0.81
same,Oaf nFC,0.57
same,Olfml2b log2 nFC,-0.82
same,Olfml2b nFC,0.57
same,Ooep log2 nFC,-1.51
same,Ooep nFC,0.35
same,Otud7b log2 nFC,0.61
same,Otud7b nFC,1.53
same,P3h1 log2 nFC,-0.85
same,P3h1 nFC,0.55
same,P4ha3 log2 nFC,-2.15
same,P4ha3 nFC,0.23
same,Pbk log2 nFC,-2.73
same,Pbk nFC,0.15
same,Pclaf log2 nFC,-2.08
same,Pclaf nFC,0.24
same,Pcmtd1 log2 nFC,0.63
same,Pcmtd1 nFC,1.54
same,Pdgfc log2 nFC,-1.47
same,Pdgfc nFC,0.36
same,Pdzd2 log2 nFC,0.60
same,Pdzd2 nFC,1.52
same,Phactr2 log2 nFC,0.63
same,Phactr2 nFC,1.54
same,Pianp log2 nFC,-1.75
same,Pianp nFC,0.30
same,Pla1a log2 nFC,-1.42
same,Pla1a nFC,0.37
same,Pld4 log2 nFC,-0.66
same,Pld4 nFC,0.63
same,Plk1 log2 nFC,-1.89
same,Plk1 nFC,0.27
same,Plk2 log2 nFC,-0.82
same,Plk2 nFC,0.57
same,Plpp3 log2 nFC,0.65
same,Plpp3 nFC,1.57
same,Plxdc2 log2 nFC,0.61
same,Plxdc2 nFC,1.53
same,Pmepa1 log2 nFC,-0.76
same,Pmepa1 nFC,0.59
same,Pole2 log2 nFC,-1.50
same,Pole2 nFC,0.35
same,Pole log2 nFC,-1.58
same,Pole nFC,0.34
same,Por log2 nFC,0.66
same,Por nFC,1.58
same,Ppa1 log2 nFC,-0.71
same,Ppa1 nFC,0.61
same,Ppp1r9a log2 nFC,0.61
same,Ppp1r9a nFC,1.53
same,Prc1 log2 nFC,-2.31
same,Prc1 nFC,0.20
same,Prcp log2 nFC,-0.69
same,Prcp nFC,0.62
same,Prdx1 log2 nFC,-0.62
same,Prdx1 nFC,0.65
same,Prrx2 log2 nFC,-1.75
